Data published in patent US20190119645A1, “GENERATION OF ADULT-LIKE HEART MUSCLE FROM HUMAN PLURIPOTENT STEM CELLS” (The Johns Hopkins University, priority 2015, published 2019).

What was measured:
[1] = system: functional sodium and potassium channels in hiPSC-neurons; test: Voltage-clamp recording of Na+ and K+ currents in hiPSC-derived neurons; format: cell-based, human; details: depolarizing voltage steps; hiPSC-neurons after 8 weeks of maturation
Protocol: (§1) Transverse brain slices of 350 μm thickness were prepared at 8 weeks after differentiated hiPSC cells injection using a vibratome (Leica VT1200S). Slices were incubated in artificial cerebrospinal fluid (ACSF) containing (in mM): NaCl 125, KCl 2.5, MgSO4 1, NaH2PO4 1.25, NaHCO3 26, CaCl2 2, and D-glucose 10. Slices were maintained in ACSF and continuously bubbled with 95% O2 and 5% CO2, first at 34° C. for 30 min, and then at room temperature. A single slice was transferred into a submerged recording chamber and perfused constantly with carbogen-equilibrated ACSF at a rate of 2 ml/min Injected human neurons expressing RFP were visualized under a 40× water immersion objective by fluorescence and DIC optics (Carl Zeiss, Germany). […] Resting membrane potential (RMP) was recorded in current clamp mode at 0 pA immediately after establishing whole-cell configuration. Series resistance (Rseries) and input resistance (Rin) were calculated from a 5 mV pulse and monitored throughout the experiment. […]
(§2) For voltageclamp experiments, the membrane potential was typically held at −70 mV. […] Data were acquired by PatchMaster software (HEKA Elektronik, Lambrech, Germany) Na^+ and K^+ currents and action potentials were analyzed using Clampfit 10.5 software (Molecular devices, Palo Alto, Calif., USA). Spontaneous synaptic events were analyzed using MiniAnalysis software (Synaptosoft, Decatur, Ga., USA). […]

hiPSC-derived neurons = test: Patch-clamp recording of spontaneous synaptic events in hiPSC-derived neurons; format: cell-based, human; details: 10 μM; hiPSC-derived neurons in slices and in cultures; applied with Bic
Protocol: as §1, §2

Compound | voltage-dependent inward and outward currents, sensitivity [1] | spontaneous synaptic events (hiPSC-derived neurons)
CC[N+](CC)(CC)CC [TEA] | selectively sensitive | –
N#Cc1cc2c(cc1[N+](=O)[O-])=NC(=O)C(=O)N=2 [CNQX, 6-Cyano-7-nitroquinoxaline-2,3-dione] | – | blocked
